Numbers after ± are expanded uncertainties.
Conditions: DTA

Glass transition temperature: -47.6 ± 5 °C
Compound: CC(C)C[P+](C)(CC(C)C)CC(C)C.Cc1ccc(S(=O)(=O)[O-])cc1 [triisobutylmethylphosphonium p-toluenesulfonate]
